Reference: ChEMBL document CHEMBL1201862, “PubChem BioAssay data set” (2004)
Activity calls are given as the source filed them.

What was measured:
Beta-galactosidase = Beta-galactosidase (Escherichia coli, UniProt Q8VNN2); experiment: Dose response counterscreen for EBI2 assay utilizing the enzyme, b-galactosidase.; assay type: functional
[1] = molecular target: T1, Carboxy-terminal domain RNA polymerase II polypeptide A small phosphatase 1 (Homo sapiens, UniProt Q9GZU7); experiment: inhibitors of CTDSP1, concentration-response testing, biochemical assay, absorbance-based, actives from ultra-high-throughput screening (AID 540297); assay type: functional
T1 sequence (Q9GZU7 whole entry): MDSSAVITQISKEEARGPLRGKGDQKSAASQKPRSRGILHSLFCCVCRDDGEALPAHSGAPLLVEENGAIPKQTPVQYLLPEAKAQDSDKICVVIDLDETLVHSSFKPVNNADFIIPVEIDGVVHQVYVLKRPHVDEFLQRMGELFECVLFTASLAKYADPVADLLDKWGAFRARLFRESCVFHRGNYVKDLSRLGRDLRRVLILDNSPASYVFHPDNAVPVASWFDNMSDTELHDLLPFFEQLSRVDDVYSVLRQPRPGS

[2] = molecular target: T2, Long-chain-fatty-acid--AMP ligase FadD28 (Mycobacterium tuberculosis, UniProt P9WQ59); experiment: Fluorescence polarization aasay to screen for inhibitors that compete for the binding of FadD28 to a bisubstrate Measured in Biochemical System Using Plate Reader - 2147-01_Inhibitor_Dose_CherryPick_Activity.; assay type: functional, Mycobacterium tuberculosis H37Rv
T2 sequence (P9WQ59 whole entry): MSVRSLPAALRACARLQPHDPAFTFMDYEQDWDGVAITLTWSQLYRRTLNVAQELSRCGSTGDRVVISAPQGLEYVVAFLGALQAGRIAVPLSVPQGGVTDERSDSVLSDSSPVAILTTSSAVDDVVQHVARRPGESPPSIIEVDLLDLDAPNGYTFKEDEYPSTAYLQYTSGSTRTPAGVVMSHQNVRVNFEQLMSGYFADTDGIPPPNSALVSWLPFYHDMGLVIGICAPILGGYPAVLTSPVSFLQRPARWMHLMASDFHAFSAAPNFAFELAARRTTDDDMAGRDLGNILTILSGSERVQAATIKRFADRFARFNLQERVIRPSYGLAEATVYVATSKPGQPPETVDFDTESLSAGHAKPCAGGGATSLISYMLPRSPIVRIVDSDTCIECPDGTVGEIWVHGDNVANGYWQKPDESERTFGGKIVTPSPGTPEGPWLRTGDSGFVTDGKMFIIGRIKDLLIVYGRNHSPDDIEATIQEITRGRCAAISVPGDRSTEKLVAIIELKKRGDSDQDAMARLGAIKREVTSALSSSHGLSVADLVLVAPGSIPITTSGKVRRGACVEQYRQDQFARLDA

[3] = molecular target: T3, Corticotropin-releasing factor receptor 2/Corticotropin-releasing factor-binding protein (Homo sapiens, UniProt P24387+Q13324); experiment: Dose Response confirmation of uHTS hits for small molecule antagonists of the CRF-binding protein and CRF-R2 receptor complex.; assay type: functional; conditions: read-out: IC50_Mean
T3 sequence (Q13324 whole entry): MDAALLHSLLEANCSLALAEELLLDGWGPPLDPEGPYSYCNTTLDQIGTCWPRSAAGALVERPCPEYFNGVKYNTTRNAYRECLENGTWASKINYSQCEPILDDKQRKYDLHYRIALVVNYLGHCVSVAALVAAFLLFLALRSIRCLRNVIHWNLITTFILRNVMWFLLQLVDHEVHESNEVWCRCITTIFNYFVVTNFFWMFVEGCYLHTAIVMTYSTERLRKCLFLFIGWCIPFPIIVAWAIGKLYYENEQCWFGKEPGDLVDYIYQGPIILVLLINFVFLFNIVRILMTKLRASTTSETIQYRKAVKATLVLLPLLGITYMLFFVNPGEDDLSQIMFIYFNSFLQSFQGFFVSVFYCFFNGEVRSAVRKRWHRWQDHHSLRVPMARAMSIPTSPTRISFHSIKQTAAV
T3 sequence (P24387 whole entry): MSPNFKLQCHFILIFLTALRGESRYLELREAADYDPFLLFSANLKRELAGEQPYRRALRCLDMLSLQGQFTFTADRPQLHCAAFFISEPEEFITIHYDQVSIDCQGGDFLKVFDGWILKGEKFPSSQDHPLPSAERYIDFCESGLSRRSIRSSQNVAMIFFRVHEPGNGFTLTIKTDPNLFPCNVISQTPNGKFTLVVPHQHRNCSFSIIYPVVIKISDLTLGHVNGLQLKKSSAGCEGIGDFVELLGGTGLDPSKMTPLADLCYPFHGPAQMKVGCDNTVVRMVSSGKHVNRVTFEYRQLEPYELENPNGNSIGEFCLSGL

[4] = molecular target: T3, Corticotropin-releasing factor receptor 2/Corticotropin-releasing factor-binding protein; experiment: activators of CRF receptor 2 with binding protein – uHTS hits, confirmation (AID 602473); assay type: functional; conditions: read-out: EC50_Mean
[5] = CRF-BP/CRF-R2 complex antagonists, dose response, cell-based, uHTS hits, 384-well (AID 651639); assay type: functional, Homo sapiens; conditions: read-out: IC50_Mean
Protein Tat = molecular target: T4, Protein Tat (Human immunodeficiency virus type 1 group M subtype B (isolate HXB2)(HIV-1), UniProt P04608); assay type: functional;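 also: tat binding to TAR RNA read out by fluorescence polarization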
T4 sequence (P04608 whole entry): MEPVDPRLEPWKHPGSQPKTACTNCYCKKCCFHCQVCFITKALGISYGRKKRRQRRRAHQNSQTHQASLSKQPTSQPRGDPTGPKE

[6] = Luminescence Cell-Based Dose Retest to Confirm Inhibitors of Cancer Stem Cells. [Related pubchem assays (depositor defined):AID2717, AID2721]; assay type: functional; conditions: Homo sapiens
Aminopeptidase N = molecular target: T5, Aminopeptidase N (Plasmodium falciparum FcB1/Columbia, UniProt O96935); experiment: P. falciparum M1AAP inhibitors, biochemical, fluorogenic H-Leu-NHMec substrate, 1536-well (AID 1445); set-up: species or system Plasmodium falciparum 3D7, 3D7
T5 sequence (O96935 whole entry): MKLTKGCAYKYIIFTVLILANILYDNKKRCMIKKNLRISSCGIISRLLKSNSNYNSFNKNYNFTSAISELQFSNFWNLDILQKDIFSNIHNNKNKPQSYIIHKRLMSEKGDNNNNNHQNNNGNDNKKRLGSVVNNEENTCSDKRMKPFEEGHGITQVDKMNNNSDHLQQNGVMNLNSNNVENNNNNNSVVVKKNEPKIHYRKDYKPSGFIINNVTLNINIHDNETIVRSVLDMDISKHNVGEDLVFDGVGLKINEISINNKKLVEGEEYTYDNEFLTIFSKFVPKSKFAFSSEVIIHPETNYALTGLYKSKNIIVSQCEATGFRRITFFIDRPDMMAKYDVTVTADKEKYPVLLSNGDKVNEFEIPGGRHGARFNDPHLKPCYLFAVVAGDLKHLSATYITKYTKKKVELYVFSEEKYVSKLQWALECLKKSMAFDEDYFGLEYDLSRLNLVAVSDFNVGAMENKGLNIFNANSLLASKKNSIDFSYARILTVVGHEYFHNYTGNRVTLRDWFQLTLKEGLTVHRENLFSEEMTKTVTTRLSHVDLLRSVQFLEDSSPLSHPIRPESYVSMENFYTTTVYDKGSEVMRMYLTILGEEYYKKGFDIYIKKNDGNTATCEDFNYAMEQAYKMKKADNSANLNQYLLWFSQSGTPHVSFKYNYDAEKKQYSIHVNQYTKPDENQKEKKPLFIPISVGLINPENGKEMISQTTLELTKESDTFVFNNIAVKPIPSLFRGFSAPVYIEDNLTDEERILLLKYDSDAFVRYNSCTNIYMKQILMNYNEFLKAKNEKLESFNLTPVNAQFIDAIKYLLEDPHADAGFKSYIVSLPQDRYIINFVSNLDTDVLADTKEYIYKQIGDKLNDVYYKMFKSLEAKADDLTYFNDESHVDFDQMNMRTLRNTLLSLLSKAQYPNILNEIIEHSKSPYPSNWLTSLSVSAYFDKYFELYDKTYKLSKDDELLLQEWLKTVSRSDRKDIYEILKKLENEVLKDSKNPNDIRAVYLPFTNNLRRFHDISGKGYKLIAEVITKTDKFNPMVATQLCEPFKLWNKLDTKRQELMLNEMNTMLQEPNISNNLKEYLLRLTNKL

Cytochrome P450 2C19 = Cytochrome P450 2C19 (Homo sapiens, UniProt P33261); experiment: Cytochrome panel assay with activity outcomes. Panel member name: p450-cyp2c19 Compounds with AC50 equal or less than 10 uM are considered active; assay type: functional; conditions: read-out: AC50
Cytochrome P450 2C19, sequence (P33261 whole entry): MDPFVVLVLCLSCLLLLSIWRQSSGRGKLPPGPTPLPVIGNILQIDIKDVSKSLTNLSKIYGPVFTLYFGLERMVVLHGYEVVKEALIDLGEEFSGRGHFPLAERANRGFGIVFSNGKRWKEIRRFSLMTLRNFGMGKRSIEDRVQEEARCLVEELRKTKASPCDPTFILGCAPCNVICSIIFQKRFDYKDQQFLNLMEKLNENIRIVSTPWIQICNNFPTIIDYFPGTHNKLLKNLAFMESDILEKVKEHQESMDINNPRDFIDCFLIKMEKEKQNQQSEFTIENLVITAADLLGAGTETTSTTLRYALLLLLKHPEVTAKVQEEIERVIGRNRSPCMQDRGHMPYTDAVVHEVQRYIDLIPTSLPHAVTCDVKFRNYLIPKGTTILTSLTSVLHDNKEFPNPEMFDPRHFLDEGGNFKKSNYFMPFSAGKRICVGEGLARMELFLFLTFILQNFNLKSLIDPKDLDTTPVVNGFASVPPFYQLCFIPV

Kallikrein-7 = Kallikrein-7 (Homo sapiens, UniProt P49862); experiment: Fluorescence Intensity-based biochemical primary high throughput dose response assay to identify activators of kallikrein-7 (K7) zymogen.
Kallikrein-7, sequence (P49862 whole entry): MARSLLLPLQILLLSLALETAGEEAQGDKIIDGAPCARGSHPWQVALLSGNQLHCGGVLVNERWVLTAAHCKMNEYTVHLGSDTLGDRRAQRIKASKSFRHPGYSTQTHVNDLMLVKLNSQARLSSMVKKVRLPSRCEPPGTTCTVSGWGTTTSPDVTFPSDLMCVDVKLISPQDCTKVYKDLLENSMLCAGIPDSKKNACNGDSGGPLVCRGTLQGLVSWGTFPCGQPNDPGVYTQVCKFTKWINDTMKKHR

Paired box protein Pax-8 = Paired box protein Pax-8 (Homo sapiens, UniProt Q06710); experiment: inhibitors of PAX8-driven TPO luciferase reporter, dose response, RMG-I cells, cherry-pick (AID 687027); assay type: functional, cell-based;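 also: luciferase reporter driven by Pax8 target thyroperoxidase promoter measured by SteadyGlo luminescence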
Paired box protein Pax-8, sequence (Q06710 whole entry): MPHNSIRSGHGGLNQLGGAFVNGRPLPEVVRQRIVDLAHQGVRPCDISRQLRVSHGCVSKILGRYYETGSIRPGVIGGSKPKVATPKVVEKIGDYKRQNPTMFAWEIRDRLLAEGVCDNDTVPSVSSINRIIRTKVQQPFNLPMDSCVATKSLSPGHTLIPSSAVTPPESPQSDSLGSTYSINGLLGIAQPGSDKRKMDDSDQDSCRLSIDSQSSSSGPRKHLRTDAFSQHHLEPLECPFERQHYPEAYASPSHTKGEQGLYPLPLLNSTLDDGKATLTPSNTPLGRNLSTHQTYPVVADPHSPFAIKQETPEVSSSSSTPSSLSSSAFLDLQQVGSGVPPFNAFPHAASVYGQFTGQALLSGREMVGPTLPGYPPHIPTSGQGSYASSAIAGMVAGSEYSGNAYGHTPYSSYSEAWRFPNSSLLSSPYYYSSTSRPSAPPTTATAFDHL

[7] = NIH:OVCAR-3 ovarian cancer cell cytotoxicity, dose response, PAX8 inhibitor project, plate reader, dry powder samples (AID 743044); assay type: functional, cell-based
[8] = IGROV1 ovarian cancer cell cytotoxicity, dose response, PAX8 inhibitor project, plate reader, dry powder samples (AID 743043); assay type: functional, cell-based; conditions: IGROV-1
[9] = cytotoxicity in OVCAR8 ovarian cancer cells, dose response, PAX8 project, cell-based, plate reader, dry powder samples (AID 743197); assay type: functional; conditions: OVCAR-8
H9c2 = experiment: cells; assay type: functional, cell-based; conditions: Rattus norvegicus, H9c2, Myocardium;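 also: confirmatory concentration-response retest of ultra-high-throughput screening hits for modulation of myocardial damage; cell death induced by hydrogen peroxide oxidative stress; compound pretreatment for 60 min then peroxide exposure for 2 h; potency is for protecting the cells against peroxide damage rather than for killing them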
Cytochrome P450 2D6 = Cytochrome P450 2D6 (Homo sapiens, UniProt P10635);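 also: CYP2D6 member of a cytochrome P450 panel assay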
Cytochrome P450 2D6, sequence (P10635 whole entry): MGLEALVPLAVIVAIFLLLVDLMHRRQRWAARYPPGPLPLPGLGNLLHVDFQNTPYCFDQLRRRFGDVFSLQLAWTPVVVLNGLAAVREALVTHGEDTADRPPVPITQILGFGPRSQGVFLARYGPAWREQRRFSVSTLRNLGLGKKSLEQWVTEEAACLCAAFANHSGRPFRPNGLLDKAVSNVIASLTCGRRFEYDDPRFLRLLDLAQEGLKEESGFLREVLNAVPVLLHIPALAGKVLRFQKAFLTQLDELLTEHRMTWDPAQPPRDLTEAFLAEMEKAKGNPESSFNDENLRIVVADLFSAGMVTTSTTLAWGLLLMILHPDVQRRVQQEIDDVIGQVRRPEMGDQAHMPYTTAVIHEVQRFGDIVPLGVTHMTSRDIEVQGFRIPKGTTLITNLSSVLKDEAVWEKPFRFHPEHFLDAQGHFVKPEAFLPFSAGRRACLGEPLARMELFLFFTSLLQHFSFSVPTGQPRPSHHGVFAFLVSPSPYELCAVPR

Cytochrome P450 2C9 = Cytochrome P450 2C9 (Homo sapiens, UniProt P11712)
Cytochrome P450 2C9, sequence (P11712 whole entry, the tested form may be a part): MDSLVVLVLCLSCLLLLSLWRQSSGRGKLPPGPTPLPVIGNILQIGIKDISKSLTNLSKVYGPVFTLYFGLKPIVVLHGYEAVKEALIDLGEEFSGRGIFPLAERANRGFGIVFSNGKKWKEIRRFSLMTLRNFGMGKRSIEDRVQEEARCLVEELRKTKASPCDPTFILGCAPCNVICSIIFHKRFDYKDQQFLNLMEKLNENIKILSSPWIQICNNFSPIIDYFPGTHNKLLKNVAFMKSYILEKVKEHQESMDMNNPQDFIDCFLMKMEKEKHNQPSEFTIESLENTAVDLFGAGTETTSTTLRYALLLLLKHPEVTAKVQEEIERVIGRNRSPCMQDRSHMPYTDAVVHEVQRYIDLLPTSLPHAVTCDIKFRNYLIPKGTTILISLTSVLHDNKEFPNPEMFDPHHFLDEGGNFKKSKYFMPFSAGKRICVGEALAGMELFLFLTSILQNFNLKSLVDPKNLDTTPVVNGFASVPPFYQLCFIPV

[10] = inhibitors of HIV Env-driven cell fusion, dose response, cherry-pick (AID 652057); assay type: functional, cell-based
[11] = CEM21 lymphoblast cell cytotoxicity, dose response, cytotoxicity control for viral fusion inhibitor project, CellTiter-Glo luminescence, cherry-picked (AID 652042); assay type: functional, cell-based;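 also: potency for signal decrease meaning cytotoxicity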
[12] = ZM109 Env clade C HIV-1 fusion inhibitors, dose response, HeLa effector, CEM target cells, luciferase, cherry-pick (AID 652058); assay type: functional, cell-based
[13] = off-target signal loss in HeLa-CEM21 co-culture – HeLa F-luc CTL cells, cherry-picked, counter-screen for HIV-1 Env fusion inhibitor project, dose response (AID 652040); assay type: functional, cell-based;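 also: potency for signal decrease marking cytotoxic or nonspecific inhibition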
[14] = inhibitors of clade B AD8 Env fusion, dose response, cell-based, cherry-pick (AID 652062); assay type: functional;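 also: luciferase signal from cell-cell fusion driven by HIV-1 clade B AD8 Env; potency is for inhibitors of fusion seen as a drop in luminescence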
[15] = molecular target: Heat shock protein HSP 90-alpha (Homo sapiens, UniProt P07900); assay type: functional, organism-based
Vero = experiment: cells; assay type: functional; conditions: Chlorocebus sabaeus

Beta-galactosidase, sequence (Q8VNN2 whole entry, the tested form may be a part): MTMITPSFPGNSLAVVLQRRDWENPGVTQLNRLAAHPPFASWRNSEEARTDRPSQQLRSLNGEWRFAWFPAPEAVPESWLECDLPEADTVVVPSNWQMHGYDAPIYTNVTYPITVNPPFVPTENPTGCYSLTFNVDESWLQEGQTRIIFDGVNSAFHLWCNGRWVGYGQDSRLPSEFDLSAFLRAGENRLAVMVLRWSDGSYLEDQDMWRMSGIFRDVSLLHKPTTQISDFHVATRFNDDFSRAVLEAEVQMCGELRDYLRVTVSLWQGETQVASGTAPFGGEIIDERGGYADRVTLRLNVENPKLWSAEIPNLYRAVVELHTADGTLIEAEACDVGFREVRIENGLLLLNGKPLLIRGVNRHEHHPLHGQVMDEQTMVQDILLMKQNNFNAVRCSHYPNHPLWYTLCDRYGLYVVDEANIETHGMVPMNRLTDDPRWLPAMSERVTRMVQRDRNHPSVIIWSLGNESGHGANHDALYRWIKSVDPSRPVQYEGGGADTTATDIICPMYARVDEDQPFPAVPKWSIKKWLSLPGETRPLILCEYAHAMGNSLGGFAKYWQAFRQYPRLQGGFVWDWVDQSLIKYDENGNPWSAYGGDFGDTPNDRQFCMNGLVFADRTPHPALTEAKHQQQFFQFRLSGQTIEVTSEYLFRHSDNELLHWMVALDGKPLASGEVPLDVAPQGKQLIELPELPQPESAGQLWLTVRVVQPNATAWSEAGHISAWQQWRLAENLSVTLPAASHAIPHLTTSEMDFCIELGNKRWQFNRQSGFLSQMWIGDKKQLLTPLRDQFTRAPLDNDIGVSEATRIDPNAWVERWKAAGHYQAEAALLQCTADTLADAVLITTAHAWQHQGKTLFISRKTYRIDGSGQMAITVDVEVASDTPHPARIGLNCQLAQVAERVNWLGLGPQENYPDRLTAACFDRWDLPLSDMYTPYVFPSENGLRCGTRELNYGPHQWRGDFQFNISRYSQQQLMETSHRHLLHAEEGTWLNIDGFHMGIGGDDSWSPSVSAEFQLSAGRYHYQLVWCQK

CCN(CC(=O)Nc1c(F)cccc1F)C(=O)/C=C/c1ccc(C)cc1
IC50 (Beta-galactosidase): > 80 µM (inactive)

Cc1cccc(NC(=O)CN2C(=O)S/C(=C\c3ccc(O)c([N+](=O)[O-])c3)C2=O)c1
IC50 [1]: 3.43 µM (active)
AC50 [2]: 0.102 µM (active)

COC(=O)c1cc(OC)c(OC)cc1NC(=O)c1c(-c2ccccc2)noc1C
IC50 [3]: 16.2 µM (active)
EC50 [4]: > 53 µM (inactive)
IC50 [5]: 1.87 µM (active)

O=C(COC(=O)c1ccc(O)cc1O)Nc1cccc2ccccc12
AC50 [2]: > 100 µM (inactive)

Cc1nc(Sc2ccccc2)c(C#N)cc1-c1ccccc1
IC50 [3]: < 0.368 µM (active)
EC50 [4]: > 53 µM (inactive)
IC50 [5]: > 20 µM (inactive)

Cc1ccc(N2CCN(c3ccc(C)cc3)C2c2ccccn2)cc1
IC50 (Protein Tat): > 100 µM (active)

COc1ccc(N2CCN(C(=O)c3cc(=O)c4cc(C)cc(C)c4o3)CC2)cc1
IC50 (Beta-galactosidase): > 80 µM (inactive)

CCn1c(SCC(=O)NCc2ccco2)nnc1-c1cccs1
IC50 (Protein Tat): > 100 µM (active)

CCc1nnc(NS(=O)(=O)c2ccc(NC(=O)Nc3ccc(OC)cc3)cc2)s1
AC50 [2]: 73.5 µM (active)

CC1=NN(c2nc(-c3ccc(F)cc3)cs2)C(=O)C1
AC50 [6]: 7.23 µM (active)
AC50 [2]: 32 µM (inactive)

CC(=O)/N=C1\C(=O)N(C)c2cccc3c(O)c4ccccc4c1c23
IC50 (Aminopeptidase N): 27.9 µM (active)
AC50 (Cytochrome P450 2C19): 14.1 µM (inconclusive)
IC50 (Protein Tat): > 100 µM (active)

COC(=O)CC1=C(C(=O)OC)[C@@H](c2ccccc2[N+](=O)[O-])C(C#N)=C(N)O1
EC50 (Kallikrein-7): 8.2 µM (active)

CCC(c1nnnn1C1CCCC1)N1CCN(Cc2ccccc2)CC1 (centres undefined)
IC50 [3]: < 0.368 µM (active)
EC50 [4]: > 53 µM (inactive)
IC50 [5]: > 20 µM (inactive)

C[C@H]1CCCCO[C@@H](CN(C)S(=O)(=O)c2ccccc2)[C@@H](C)CN([C@@H](C)CO)C(=O)c2cc(NC(=O)Nc3ccc(C(F)(F)F)cc3)ccc2O1
AC50 (Paired box protein Pax-8): 6.6 µM (active)
AC50 [7]: 19.4 µM (active)
AC50 [8]: 53.1 µM (active)
AC50 [9]: 52.4 µM (active)

CCN1c2ccccc2-c2nc3ccccc3n2C1c1ccccn1 (centres undefined)
EC50 (Kallikrein-7): > 69.5 µM (inactive)

O=c1c2ccccc2nc(/C=C/c2ccc(O)cc2)n1-c1ccc(O)cc1
IC50 (H9c2): > 79 µM (inactive)
EC50 (Kallikrein-7): 21.7 µM (inactive)

N#Cc1cccc(C(c2nnnn2C2CCCC2)N2CCCCCC2)c1 (centres undefined)
IC50 [3]: 20.7 µM (active)
EC50 [4]: > 53 µM (inactive)
IC50 [5]: > 20 µM (inactive)
AC50 (Cytochrome P450 2D6): 11.2 µM (inconclusive)
AC50 (Cytochrome P450 2C9): 35.5 µM (inconclusive)

Cc1oc(-c2cccc(Cl)c2)nc1CN1CCCC(C(=O)NC(C)c2ccc3c(c2)OCCO3)C1 (centres undefined)
AC50 [10]: 2.58 µM (active)
AC50 [11]: 54.5 µM (active)
AC50 [12]: 3.47 µM (active)
AC50 [13]: 3.92 µM (active)
AC50 [14]: 4.68 µM (active)

COc1ccc(C(=O)/C=C2\C(=O)Nc3ccc(Br)cc32)cc1
AC50 [15]: 1.59 µM (active)
CC50 (Vero): 14.9 µM (active)
IC50 (Beta-galactosidase): 71.6 µM (inactive)

CCOC(=O)C1CCN(S(=O)(=O)c2cccc(-c3cn4cccnc4n3)c2)CC1
EC50 (Kallikrein-7): > 69.5 µM (inactive)
